PubChem BioAssay (NCI)
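Results reflect a 48-hour exposure of cells in 96-well plates to compound at five concentrations. GI50 marks 50% less growth. TGI marks complete inhibition of growth.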

Key:
Test in all cases: NCI-60 cell line screen, 48 h
MOLT-4 leukemia = test system: MOLT-4 leukemia
CAKI-1 renal = test system: CAKI-1 renal
NCI-H226 lung = test system: NCI-H226 lung
RXF 393 renal = test system: RXF 393 renal
SN12C renal = test system: SN12C renal
SR leukemia = test system: SR leukemia
SF-539 CNS = test system: SF-539 CNS
LOX IMVI melanoma = test system: LOX IMVI melanoma
HCT-116 colon = test system: HCT-116 colon
ACHN renal = test system: ACHN renal

SMILES | TGI (MOLT-4 leukemia) [µM] | TGI (CAKI-1 renal) [µM] | TGI (NCI-H226 lung) [µM] | TGI (RXF 393 renal) [µM] | TGI (SN12C renal) [µM] | TGI (SR leukemia) [µM] | TGI (SF-539 CNS) [µM] | TGI (LOX IMVI melanoma) [µM] | TGI (HCT-116 colon) [µM] | TGI (ACHN renal) [µM] | GI50 (MOLT-4 leukemia) [µM] | GI50 (CAKI-1 renal) [µM] | GI50 (NCI-H226 lung) [µM] | GI50 (RXF 393 renal) [µM] | GI50 (SN12C renal) [µM] | GI50 (SR leukemia) [µM] | GI50 (SF-539 CNS) [µM] | GI50 (LOX IMVI melanoma) [µM] | GI50 (HCT-116 colon) [µM] | GI50 (ACHN renal) [µM]
C/C(=N/O)c1ccc2c(c1)C(=NO)c1cc(/C(C)=N/O)ccc1-2 | 13.2 | > 100 | 26.8 | 48.8 | 33.6 | > 100 | 31.4 | 26.7 | 64.6 | 20.8 |  |  |  |  |  |  |  |  |  | 
O=C(O)C1C2C=CC(O2)C1C(=O)Nc1ncccn1 (stereo not given) | > 100 | > 100 | > 100 | > 100 | > 100 | > 100 | > 100 | > 100 | > 100 | > 100 |  |  |  |  |  |  |  |  |  | 
CC(C)(CO)N=Cc1ccccc1[O-].CC(C)(CO)N=Cc1ccccc1[O-].[Co+2] | > 100 | > 100 | > 100 | > 100 | > 100 | > 90.4 | > 100 | > 63.1 | > 100 | > 100 | 8.39 | 53.7 | 27.9 | > 100 | > 96.6 | 14.4 | 66.5 | 40.5 | 69.8 | > 81.4
